Laboratory results reported in patent US20230310436A1, “COMBINATION THERAPY FOR CANCERS WITH KRAS MUTATION” (COTHERA BIOSCIENCE, INC., priority 2019, published 2023).

These compounds were tested on KRAS^G12A-NSCLC H1573 cell line (assay: Ex vivo Edu proliferation test (MI, GI %), H1573). Settings: Table 1; 4 days; uM: osimertinib 0.5, afatinib 0.2, cobimetinib 0.4, trametinib 0.02, TAK-733 0.18, palbociclib 0.15, ribociclib 5.
Format: cell-based
Protocol: (§1) For ex vivo drug testing, the cells were exposed to a combination of drugs or single drugs for 4 days or 7 days. Following exposure with drug, 1,000-5,000 cells were labeled with 5-ethynyl-2′-deoxyuridine (Edu) to assess the tumor cell proliferation rates. The labeling lasted 24 hours in the presence of drug exposure. In the control group, epithelial tumor cells received no drug exposure with media change (with 0.1% DMSO), but were similarly labeled with Edu. The labeled cells were fixed and blocked with 3% BSA and 0.5% Triton X-100 for 2 hours at room temperature, followed by staining with Hoechst 33342 and EpCAM antibody (1:4000) in PBS solution containing 0.5% Triton X-100 overnight at 4° C. Subsequently, the cells were rinsed with PBST then incubated with Alexa Fluor® 647 conjugated goat-antimouse secondary antibody for 30 minutes at room temperature.
(§2) The incorporated Edu was detected by Click-iT reaction where fixed cells were incubated with a reaction mixture containing 1× Click-iT Edu reaction buffer, CuSO4, and azide-conjugated Alexa Fluor dye in the dark. The stained cells were washed with PBS two times before image acquisition and analysis.
(§3) For image acquisition and analysis, the stained tumor cells were imaged by a high-content screening (HCS) platform (Thermo Scientific CellomicsArrayScanXTi HCS reader). The 10× objective was used to collect images. Twenty-five fields were imaged for each well for the analysis. From the images three fluorescent signals were obtained from the HCS reader. Blue fluorescent signals recorded nucleus signals stained with Hoechst 33342, green fluorescent signal detected the Edu incorporated in newly synthesized DNA, and red fluorescent signal detected the EpCAM positive epithelial cells population.
The MI (Maximum Inhibition Index) was calculated using the EpCAM and Edu positive readout (Tables 1-4). MI=Edu positive cells in control/Edu positive cells in treatment. MI4 indicates an MI value after 4 days of treatment and MI7 indicates an MI values after 7 days of treatment. […] GI % is calculated as GI %=(1−1/MI)*100%.

**Q.** For `C=CC(=O)Nc1cc(Nc2nccc(-c3cn(C)c4ccccc34)n2)c(OC)cc1N(C)CCN(C)C` [Osimertinib, osimertinib], which “GI % (Growth Inhibition Rate), H1573” value is on record?
**A.** The value was 67.71%.

**Q.** And the “MI 4 (Maximum Inhibition Index), H1573” value?
**A.** Its value is 3.10.

**Q.** How did the “GI % (Growth Inhibition Rate), H1573” value turn out when `CC(=O)c1c(C)c2cnc(Nc3ccc(N4CCNCC4)cn3)nc2n(C2CCCC2)c1=O` [Palbociclib, palbociclib] was run?
**A.** The value was 92.17%.

**Q.** And the “MI 4 (Maximum Inhibition Index), H1573” value?
**A.** The value was 12.77.

**Q.** Which results are given for `Cn1c(=O)c(F)c(Nc2ccc(I)cc2F)c2c(=O)n(C[C@@H](O)CO)cnc21` [TAK-733]?
**A.** GI % (Growth Inhibition Rate), H1573: 89.62%; MI 4 (Maximum Inhibition Index), H1573: 9.64

What follows are compounds tested on KRAS^G12A-NSCLC H2009 cell line (assay: Ex vivo Edu proliferation test (MI, GI %), H2009). Settings: Table 1; 4 days; uM: osimertinib 0.5, afatinib 0.2, cobimetinib 0.4, trametinib 0.02, TAK-733 0.18, palbociclib 0.15, ribociclib 5.
Format: cell-based
Protocol: as §1, §2, §3
(§4) The MI (Maximum Inhibition Index) was calculated using the EpCAM and Edu positive readout (Tables 1-4). MI=Edu positive cells in control/Edu positive cells in treatment. MI4 indicates an MI value after 4 days of treatment and MI7 indicates an MI values after 7 days of treatment. The MI and growth inhibition rate (GI %) values for KRAS^G12A-NSCLC (H1573 and H2009), KRAS^G12C-NSCLC (H358, H23 and H2030), KRAS^G12V-NSCLC (H2291 and H2444) and KRAS^G12D-NSCLC (H1588 and SK-LU-1) cell lines are shown in Tables 1-4, respectively. GI % is calculated as GI %=(1−1/MI)*100%.

**Q.** For `C=CC(=O)Nc1cc(Nc2nccc(-c3cn(C)c4ccccc34)n2)c(OC)cc1N(C)CCN(C)C` [Osimertinib, osimertinib], which “GI % (Growth Inhibition Rate), H2009” value is on record?
**A.** The value was 35.30%.

**Q.** And the “MI 4 (Maximum Inhibition Index), H2009” value?
**A.** The value was 1.55.

**Q.** `CC(=O)c1c(C)c2cnc(Nc3ccc(N4CCNCC4)cn3)nc2n(C2CCCC2)c1=O` [Palbociclib, palbociclib] was tested. Which “GI % (Growth Inhibition Rate), H2009” value did it give?
**A.** The value was 8.82%.

**Q.** What about the “MI 4 (Maximum Inhibition Index), H2009” value of the same compound?
**A.** Its value is 1.10.

**Q.** What does the source list for `Cn1c(=O)c(F)c(Nc2ccc(I)cc2F)c2c(=O)n(C[C@@H](O)CO)cnc21` [TAK-733]?
**A.** GI % (Growth Inhibition Rate), H2009: 62.18%; MI 4 (Maximum Inhibition Index), H2009: 2.64

Each compound was assayed on KRAS^G12C-NSCLC H358 cell line (assay: Ex vivo Edu proliferation test (MI, GI %), H358). Settings: Table 2a; 7 days; uM: osimertinib 0.5, afatinib 0.2, cobimetinib 0.4, trametinib 0.02, palbociclib 0.15, ribociclib 5.
Format: cell-based
Protocol: as §1, §2, §3, §4

**Q.** Which results are given for `C=CC(=O)Nc1cc(Nc2nccc(-c3cn(C)c4ccccc34)n2)c(OC)cc1N(C)CCN(C)C` [Osimertinib, osimertinib]?
**A.** GI % (Growth Inhibition Rate), H358: 22.86%; MI 7 (Maximum Inhibition Index), H358: 1.30

**Q.** How did the “GI % (Growth Inhibition Rate), H358” value turn out when `CC(=O)c1c(C)c2cnc(Nc3ccc(N4CCNCC4)cn3)nc2n(C2CCCC2)c1=O` [Palbociclib, palbociclib] was run?
**A.** Its value is 60.31%.

**Q.** And the “MI 7 (Maximum Inhibition Index), H358” value?
**A.** The value was 2.53.

The compounds below were run on KRAS^G12C-NSCLC H23 cell line (assay: Ex vivo Edu proliferation test (MI, GI %), H23). Settings: Table 2a; 7 days; uM: osimertinib 0.5, afatinib 0.2, cobimetinib 0.4, trametinib 0.02, palbociclib 0.15, ribociclib 5.
Format: cell-based
Protocol: as §1, §2, §3, §4

**Q.** How did the “GI % (Growth Inhibition Rate), H23” value turn out when `C=CC(=O)Nc1cc(Nc2nccc(-c3cn(C)c4ccccc34)n2)c(OC)cc1N(C)CCN(C)C` [Osimertinib, osimertinib] was run?
**A.** The value was 13.11%.

**Q.** What about the “MI 7 (Maximum Inhibition Index), H23” value of the same compound?
**A.** Its value is 0.89.

**Q.** Which “GI % (Growth Inhibition Rate), H23” value does the source give for `CC(=O)c1c(C)c2cnc(Nc3ccc(N4CCNCC4)cn3)nc2n(C2CCCC2)c1=O` [Palbociclib, palbociclib] here?
**A.** Its value is 41.73%.

**Q.** And the “MI 7 (Maximum Inhibition Index), H23” value?
**A.** Its value is 1.72.

Each compound was assayed on KRAS^G12C-NSCLC H2030 cell line (assay: Ex vivo Edu proliferation test (MI, GI %), H2030). Settings: Table 2a; 7 days; uM: osimertinib 0.5, afatinib 0.2, cobimetinib 0.4, trametinib 0.02, palbociclib 0.15, ribociclib 5.
Format: cell-based
Protocol: as §1, §2, §3, §4

**Q.** `C=CC(=O)Nc1cc(Nc2nccc(-c3cn(C)c4ccccc34)n2)c(OC)cc1N(C)CCN(C)C` [Osimertinib, osimertinib] was tested. Which “GI % (Growth Inhibition Rate), H2030” value did it give?
**A.** Its value is 57.39%.

**Q.** What about the “MI 7 (Maximum Inhibition Index), H2030” value of the same compound?
**A.** The value was 2.35.

**Q.** With `CC(=O)c1c(C)c2cnc(Nc3ccc(N4CCNCC4)cn3)nc2n(C2CCCC2)c1=O` [Palbociclib, palbociclib] as the compound, how does the “GI % (Growth Inhibition Rate), H2030” value read?
**A.** Its value is 52.39%.

**Q.** And the “MI 7 (Maximum Inhibition Index), H2030” value?
**A.** The value was 2.10.

Each compound was assayed on KRAS^G12V-NSCLC H2291 cell line (assay: Ex vivo Edu proliferation test (MI, GI %), H2291). Settings: Table 3; 7 days; uM: osimertinib 0.5, afatinib 0.2, trametinib 0.02, TAK-733 0.18, palbociclib 0.15, ribociclib 5.
Format: cell-based
Protocol: as §1, §2, §3, §4

**Q.** `C=CC(=O)Nc1cc(Nc2nccc(-c3cn(C)c4ccccc34)n2)c(OC)cc1N(C)CCN(C)C` [Osimertinib, osimertinib] was tested. Which “GI % (Growth Inhibition Rate), H2291” value did it give?
**A.** The value was 21.19%.

**Q.** And the “MI 7 (Maximum Inhibition Index), H2291” value?
**A.** The value was 1.30.

**Q.** For `CC(=O)c1c(C)c2cnc(Nc3ccc(N4CCNCC4)cn3)nc2n(C2CCCC2)c1=O` [Palbociclib, palbociclib], which “GI % (Growth Inhibition Rate), H2291” value is on record?
**A.** Its value is 81.25%.

**Q.** What about the “MI 7 (Maximum Inhibition Index), H2291” value of the same compound?
**A.** Its value is 5.36.

**Q.** For `Cn1c(=O)c(F)c(Nc2ccc(I)cc2F)c2c(=O)n(C[C@@H](O)CO)cnc21` [TAK-733], which “GI % (Growth Inhibition Rate), H2291” value is on record?
**A.** Its value is 98.27%.

**Q.** And the “MI 7 (Maximum Inhibition Index), H2291” value?
**A.** The value was 57.57.

These compounds were tested on KRAS^G12V-NSCLC H2444 cell line (assay: Ex vivo Edu proliferation test (MI, GI %), H2444). Settings: Table 3; 4 days; uM: osimertinib 0.5, afatinib 0.2, trametinib 0.02, TAK-733 0.18, palbociclib 0.15, ribociclib 5.
Format: cell-based
Protocol: as §1, §2, §3, §4

**Q.** With `C=CC(=O)Nc1cc(Nc2nccc(-c3cn(C)c4ccccc34)n2)c(OC)cc1N(C)CCN(C)C` [Osimertinib, osimertinib] as the compound, how does the “GI % (Growth Inhibition Rate), H2444” value read?
**A.** The value was 66.51%.

**Q.** What about the “MI 4 (Maximum Inhibition Index), H2444” value of the same compound?
**A.** The value was 2.99.

**Q.** Which results are given for `CC(=O)c1c(C)c2cnc(Nc3ccc(N4CCNCC4)cn3)nc2n(C2CCCC2)c1=O` [Palbociclib, palbociclib]?
**A.** GI % (Growth Inhibition Rate), H2444: 59.59%; MI 4 (Maximum Inhibition Index), H2444: 2.47

**Q.** What does the source list for `Cn1c(=O)c(F)c(Nc2ccc(I)cc2F)c2c(=O)n(C[C@@H](O)CO)cnc21` [TAK-733]?
**A.** GI % (Growth Inhibition Rate), H2444: 99.01%; MI 4 (Maximum Inhibition Index), H2444: 100.76

Each compound was assayed on KRAS^G12D-NSCLC H1588 cell line (assay: Ex vivo Edu proliferation test (MI, GI %), H1588). Settings: Table 4; 4 days; uM: osimertinib 0.5, afatinib 0.2, cobimetinib 0.4, trametinib 0.02, TAK-733 0.18, palbociclib 0.15, ribociclib 5.
Format: cell-based
Protocol: as §1, §2, §3, §4

**Q.** For `C=CC(=O)Nc1cc(Nc2nccc(-c3cn(C)c4ccccc34)n2)c(OC)cc1N(C)CCN(C)C` [Osimertinib, osimertinib], which “GI % (Growth Inhibition Rate), H1588” value is on record?
**A.** Its value is 55.11%.

**Q.** And the “MI 4 (Maximum Inhibition Index), H1588” value?
**A.** The value was 2.23.

**Q.** With `CC(=O)c1c(C)c2cnc(Nc3ccc(N4CCNCC4)cn3)nc2n(C2CCCC2)c1=O` [Palbociclib, palbociclib] as the compound, how does the “GI % (Growth Inhibition Rate), H1588” value read?
**A.** Its value is 53.52%.

**Q.** And the “MI 4 (Maximum Inhibition Index), H1588” value?
**A.** Its value is 2.15.

**Q.** For `Cn1c(=O)c(F)c(Nc2ccc(I)cc2F)c2c(=O)n(C[C@@H](O)CO)cnc21` [TAK-733], which “GI % (Growth Inhibition Rate), H1588” value is on record?
**A.** The value was 36.93%.

**Q.** What about the “MI 4 (Maximum Inhibition Index), H1588” value of the same compound?
**A.** The value was 1.59.

Each compound was assayed on KRAS^G12D-NSCLC SK-LU-1 cell line (assay: Ex vivo Edu proliferation test (MI, GI %), SK-LU-1). Settings: Table 4; 4 days; uM: osimertinib 0.5, afatinib 0.2, cobimetinib 0.4, trametinib 0.02, TAK-733 0.18, palbociclib 0.15, ribociclib 5.
Format: cell-based
Protocol: as §1, §2, §3, §4

**Q.** How did the “GI % (Growth Inhibition Rate), SK-LU-1” value turn out when `C=CC(=O)Nc1cc(Nc2nccc(-c3cn(C)c4ccccc34)n2)c(OC)cc1N(C)CCN(C)C` [Osimertinib, osimertinib] was run?
**A.** The value was 35.73%.

**Q.** And the “MI 4 (Maximum Inhibition Index), SK-LU-1” value?
**A.** The value was 1.56.

**Q.** For `CC(=O)c1c(C)c2cnc(Nc3ccc(N4CCNCC4)cn3)nc2n(C2CCCC2)c1=O` [Palbociclib, palbociclib], which “GI % (Growth Inhibition Rate), SK-LU-1” value is on record?
**A.** Its value is 73.45%.

**Q.** What about the “MI 4 (Maximum Inhibition Index), SK-LU-1” value of the same compound?
**A.** Its value is 3.77.

**Q.** For `Cn1c(=O)c(F)c(Nc2ccc(I)cc2F)c2c(=O)n(C[C@@H](O)CO)cnc21` [TAK-733], which “GI % (Growth Inhibition Rate), SK-LU-1” value is on record?
**A.** Its value is 77.44%.

**Q.** What about the “MI 4 (Maximum Inhibition Index), SK-LU-1” value of the same compound?
**A.** Its value is 4.43.
